Consider one compound from patent publication US11708338B2, “Substituted phenyl sulfonyl phenyl triazole thiones and uses thereof” (Neuropore Therapies, Inc., priority 2017, dated 2023).

What all share (assay type): in vivo, mouse
Experiment [1] relates to L61 ASYN transgenic mice. The experiment is described as follows: Grip strength evaluation (motor performance), 3 month administration study. Particulars: 5 mg/kg and 10 mg/kg i.p. daily, after 70 days of treatment. The method, then:
The effects of Compound 1 on the motor performance deficits (grip strength) and a marker of neuroinflammation (Translocator Protein (18 kDa)) were assessed in both L61 ASYN transgenic and non-transgenic mice in a 3 month administration study.
Compound 1 was injected into L61 ASYN transgenic mice and non-transgenic control mice (i.p., once daily) at doses of 5 and 10 mg/kg for 3 months (79 total mice, n=14-17 mice per treatment group). The vehicle control consisted of a solution containing 5% DMSO+20% Cremphor EL+0.9% normal saline. The baseline grip strength of mice was evaluated prior to starting treatments for the 3 month study, and then re-evaluated following 70 days of treatment with vehicle or Compound 1 (5 or 10 mg/kg, i.p. daily).
At baseline, there was a statistically significant grip strength deficit in transgenic mice compared to non-transgenic mice. Treatment with Compound 1 (5 & 10 mg/kg) improved L61 ASYN transgenic grip strength deficits.

For experiment [2], the system named is glial fibrillary acidic protein (GFAP). The experiment is described as follows: GFAP IHC staining in sections containing hippocampus, 1 month administration study. Particulars: L61 ASYN transgenic mice. Here is the method: Neuroinflammation is also associated with increased expression of glial fibrillary acidic protein (GFAP) in activated astrocytes, which is induced by a variety of molecules including pro-inflammatory mediators released from activated microglia (Saijo et al. 2009). Increased expression of glial fibrillary acidic protein (GFAP) represents astroglial activation and gliosis during neurodegeneration. (Brahmachari et al., 2006). The effects of Compound 1 on GFAP expression were assessed in both L61 ASYN transgenic and non-transgenic mice in a 1 month administration study. After 30 days, the mice were sacrificed, and IHC detection of GFAP was assessed in the harvested brain tissues.
The harvested brain tissues from treated mice were fixed (drop fixed in 4% PFA) and then sectioned into 40 micro thick sections using a vibratome. The representative sections containing the hippocampus were assessed for GFAP with standard immunohistochemistry staining. The general methods used for GFAP immunostaining follow those described in Rockenstein et al., J Neurosci Res. 2002, 68(5):568-78.

For experiment [3], the system named is amyloid beta. Briefly: Amyloid beta (6E10) immunostaining in brain of L41 APP transgenic mice. The conditions noted are these: 5 mg/kg daily i.p. Here is the method: As described earlier, Line 41 transgenic mice express high levels of the mutant hAPP751 and develop mature plaques in the cortex, hippocampus, thalamus and olfactory region of mouse brain. The effects of Compound 1 on Amyloid beta plaque formation were assessed in both L41 APP transgenic and non-transgenic mice in a 1 month administration study. After 30 days, the mice were sacrificed, and immunofluorescence (IF) detection of amyloid beta were assessed in the harvested brain tissues.
The harvested brain tissues were drop fixed using 4% PFA and sectioned on a vibratome, and representative sections containing the neuropil of cortex, hippocampus and striatum were assessed for amyloid beta with standard IHC staining.
On approximately day 30, all subjects were euthanized within 2 hours of the last treatment and brain and other samples were collected. Brains were removed and divided sagitally. […]
Prepared slides were imaged at 40× using a high-resolution Hamamatsu Nanozoomer™ scanner located in the Microscopy Core in the UCSD Department of Neurosciences. Digital images were then transferred to Neuropore and analyzed using the Halo® imaging software package (Indica Labs, Corrales, N. Mex.). […] Images were evaluated for specimen and imaging problems and any issues were noted prior to unblinding of samples and statistical analyses.

In experiment [4] the test system is insoluble alpha-synuclein deposits (PK+resistant). Briefly: IHC quantification of insoluble (PK+resistant) alpha-synuclein deposits in brain, 1 month administration study. Particulars: L61 ASYN transgenic mice, FIG. 9A. Here is the method:
Multiple in vivo administration studies of Compound 1 were carried out in the Line 61 (L61) mThy1-alpha-synuclein transgenic mouse model of Parkinson's disease (PD). The mThy1-alpha-synuclein transgenic mouse model overexpresses wild-type human ASYN under the Thy-1 promoter studies (commonly referred to as Line 61 transgenic mice; Rockenstein et al., 2002). […]
Alpha-synuclein (ASYN) is a neuronal protein whose dysregulation has been implicated in the pathogenesis of PD. The effects of Compound 1 on alpha-synuclein aggregation were assessed in both L61 ASYN transgenic and non-transgenic mice in a 1 month administration study. […] At the end of one month, the mice were sacrificed, and immunohistochemical (IHC) detection of total alpha-synuclein deposits, insoluble alpha-synuclein deposits (PK+resistant), microtubule-associated protein 1A/1B-light chain 3 (LC3), and monomeric alpha-synuclein levels were assessed in the harvested brain tissues.
The quantification and IHC staining of PK-resistant alpha-synuclein were performed using known techniques (Rockenstein et al., J Neurosci Res. 2002, 68(5):568-78; Tanji et al., Acta Neuropathol. 2010, 120, 145-154; Nuber et al., Brain. 2013, February; 136(Pt 2):412-32).

For the compound `O=S(=O)(c1ccc(-n2cn[nH]c2=S)cc1)c1ccc(Cl)c(C(F)(F)F)c1` [Compound 1, 4-(4-((4-chloro-3-(trifluoromethyl)phenyl)sulfonyl)phenyl)-2,4-dihydro-3H-1,2,4-triazole-3-thione], the “grip strength vs vehicle-treated transgenic mice” value in experiment [1] is reported as “higher grip strengths than vehicle-treated transgenic mice in a statistically significant manner”. Also, the “GFAP levels, IHC staining intensity in representative images (FIG. 16)” value in experiment [2] (5 mg/kg or 10 mg/kg daily i.p.) is recorded as “reducing cortical levels of GFAP”. In addition, the “GFAP levels, quantification (FIG. 17)” value in experiment [2] (10 mg/kg dose i.p. daily) is on record as “reduces the cortical GFAP levels in a statistically significant manner”. Moreover, in experiment [3], the “amyloid beta level vs vehicle-treated Line 41 mice, quantification” value is “reduces the amyloid beta level in a statistically significant manner”. The “reduction of PK-resistant alpha synuclein levels in cortex as compared to vehicle-treated mice” value in experiment [4] (5 mg/kg daily i.p.) amounted to 37%; in experiment [4] (10 mg/kg daily i.p.), 36%.
